row,SMILES,melting point [°C]
1,Cc1sc2c(=O)[nH]cnc2c1Br,320 to 322
2,"O=c1[nH]cnc2sc(Br)cc12 [Compound 6g, 6-Bromo-3,4-dihydrothieno[2,3-d]pyrimidine-4-one]",301 to 304
3,"O=c1[nH]cnc2cc(Br)sc12 [Compound 8a, 6-Bromo-3,4-dihydrothieno[3,2-d]pyrimidin-4-one]",238 to 240

# Now from value to compound:
row,melting point [°C],SMILES
1,188 to 190,Cc1cc2ncn(C)c(=O)c2s1
2,273,CC(=O)Nn1cnc2c(Br)csc2c1=O
3,159 to 162,CC(=O)On1cnc2c(Br)csc2c1=O
4,181 to 183,"Nn1cnc2c(Br)csc2c1=O [Compound 6d, 3-Amino-7-bromo-3,4-dihydrothieno[3,2-d]pyrimidin-4-one]"

# Reference: patent US6541630B1 (priority 1997, dated 2003)
